Assay results as given in the supplement of paper PMC11061612.

Key:
Assay in all cases: combination Emax (second highest fraction inhibited in the dose matrix, 72 h); higher = more inhibition; extreme values may be limits of the assay
NY (Osteosarcoma) = test system: NY (Osteosarcoma)
Method in brief: (§1)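 After 24 hours at 37°C and 5% CO2 in 1536-well plates, cells in DMEM/F12 or RPMI plus 10% FBS received two-drug dose matrices for 72 hours. Viability came from CellTiter-Glo 2.0 luminescence and was scaled as inhibition, anchored at 0 by vehicle wells and at 1 by blank wells. Combination Emax is taken as the second-highest inhibition in the matrix, and Bliss excess as the observed combination effect less EA + EB − EA·EB, with EA and EB the single-agent effects.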

[1] = test system: JSC-1 (B-Cell Non-Hodgkin's Lymphoma)
Method in brief: as §1

Hs-445 (Non-Cancerous) = test system: Hs-445 (Non-Cancerous)
Method in brief: as §1

[2] = test system: BICR22 (Oral Cavity Carcinoma)
Method in brief: as §1

[3] = test system: TT (Thyroid Gland Carcinoma)
Method in brief: as §1

[4] = test system: CAL-29 (Bladder Carcinoma)
Method in brief: as §1

[5] = test system: COR-L311 (Small Cell Lung Carcinoma)
Method in brief: as §1

ARH-77 (Non-Cancerous) = test system: ARH-77 (Non-Cancerous)
Method in brief: as §1

[6] = test system: A3-KAW (B-Cell Non-Hodgkin's Lymphoma)
Method in brief: as §1

[7] = test system: OS-RC-2 (Kidney Carcinoma)
Method in brief: as §1

[8] = test system: PANC-10-05 (Pancreatic Carcinoma)
Method in brief: as §1

[9] = test system: A549 (Lung Adenocarcinoma)
Method in brief: as §1

CAS-1 (Glioblastoma) = test system: CAS-1 (Glioblastoma)
Method in brief: as §1

IGR-37 (Melanoma) = test system: IGR-37 (Melanoma)
Method in brief: as §1

[10] = test system: SISO (Cervical Carcinoma)
Method in brief: as §1

[11] = test system: CAPAN-2 (Pancreatic Carcinoma)
Method in brief: as §1

A498 (Kidney Carcinoma) = test system: A498 (Kidney Carcinoma)
Method in brief: as §1

[12] = test system: ONS-76 (Other Solid Carcinomas)
Method in brief: as §1

[13] = test system: VCaP (Prostate Carcinoma)
Method in brief: as §1

8-MG-BA (Glioblastoma) = test system: 8-MG-BA (Glioblastoma)
Method in brief: as §1

| Compound | combination Emax (NY (Osteosarcoma)) | combination Emax [1] | combination Emax (Hs-445 (Non-Cancerous)) | combination Emax [2] | combination Emax [3] | combination Emax [4] | combination Emax [5] | combination Emax (ARH-77 (Non-Cancerous)) | combination Emax [6] | combination Emax [7] | combination Emax [8] | combination Emax [9] | combination Emax (CAS-1 (Glioblastoma)) | combination Emax (IGR-37 (Melanoma)) | combination Emax [10] | combination Emax [11] | combination Emax (A498 (Kidney Carcinoma)) | combination Emax [12] | combination Emax [13] | combination Emax (8-MG-BA (Glioblastoma)) |
| --- | --- | --- | --- | --- | --- | --- | --- | --- | --- | --- | --- | --- | --- | --- | --- | --- | --- | --- | --- | --- |
| COc1cccc(OCCCN)c1-c1cc(Nc2cnc(C#N)cn2)n[nH]1 [Prexasertib] + C=CCn1c(=O)c2cnc(Nc3ccc(N4CCN(C)CC4)cc3)nc2n1-c1cccc(C(C)(C)O)n1 [AZD1775] (first compound max 1 µM, partner max 1 µM) | 0.663 | 0.998 | 0.947 | 0.813 | 0.759 | 0.876 | 0.861 | 0.996 | 1 | 0.519 | 0.595 | 0.776 | 0.696 | 0.879 | 0.891 | 0.569 | 0.598 | 0.829 | 0.774 | 0.977 |
| COc1cccc(OCCCN)c1-c1cc(Nc2cnc(C#N)cn2)n[nH]1 [Prexasertib] + CCc1c2c(nc3ccc(O)cc13)-c1cc3c(c(=O)n1C2)COC(=O)[C@]3(O)CC [SN-38] (first compound max 1 µM, 7x7, partner max 0.3 µM) | 0.935 | 0.987 | 1 | 0.936 | 0.916 | 0.98 | 1 | 1 | 1 | 0.431 | 0.829 | 0.796 | 0.834 | 0.942 | 0.972 | 0.495 | 0.733 | 0.867 | 0.748 | 0.989 |
| COc1cccc(OCCCN)c1-c1cc(Nc2cnc(C#N)cn2)n[nH]1 [Prexasertib] + CN(C)CCCOc1ccc(-c2ccc3ncc4c(c3c2)n(C2CCOCC2)c(=O)n4C)cn1 [AZD0156] (first compound max 1 µM, 7x7, partner max 1 µM) | 0.62 | 1 | 0.97 | 0.742 | 0.676 | 0.836 | 0.77 | 1 | 1 | 0.498 | 0.4 | 0.536 | 0.674 | 0.912 | 0.745 | 0.592 | 0.725 | 0.862 | 0.741 | 0.934 |
| COc1cccc(OCCCN)c1-c1cc(Nc2cnc(C#N)cn2)n[nH]1 [Prexasertib] + C[C@@H]1COCCN1C2=NC(=NC(=C2)C3(CC3)[S@](=N)(=O)C)C4=C5C=CNC5=NC=C4 [AZD6738] (first compound max 1 µM, 7x7, partner max 10 µM) | 0.637 | 0.995 | 0.951 | 0.789 | 0.662 | 0.839 | 0.771 | 1 | 1 | 0.483 | 0.46 | 0.864 | 0.652 | 0.896 | 0.798 | 0.513 | 0.692 | 0.903 | 0.718 | 0.926 |
| COc1cccc(OCCCN)c1-c1cc(Nc2cnc(C#N)cn2)n[nH]1 [Prexasertib] + Cc1cc2ncnn2cc1Nc1ncc2c(n1)n(C1CCOCC1)c(=O)n2C [AZD7648] (first compound max 1 µM, 7x7, partner max 10 µM) | 0.674 | 1 | 0.954 | 0.761 | 0.611 | 0.79 | 0.789 | 0.994 | 1 | 0.469 | 0.522 | 0.63 | 0.71 | 0.923 | 0.759 | 0.593 | 0.642 | 0.862 | 0.729 | 0.951 |
| COc1cccc(OCCCN)c1-c1cc(Nc2cnc(C#N)cn2)n[nH]1 [Prexasertib] + O=C(c1cc(Cc2n[nH]c(=O)c3ccccc23)ccc1F)N1CCN(C(=O)C2CC2)CC1 [Olaparib] (first compound max 1 µM, 7x7, partner max 10 µM) | 0.652 | 0.996 | 0.949 | 0.78 | 0.59 | 0.714 | 0.803 | 0.969 | 1 | 0.475 | 0.31 | 0.614 | 0.588 | 0.961 | 0.803 | 0.337 | 0.591 | 0.793 | 0.797 | 0.969 |
| COc1cc2c(cc1OCCCCCOc1cc3c(cc1OC)C(=O)N1C=C(C)C[C@H]1C=N3)N=C[C@@H]1CC(C)=CN1C2=O [SG3199] + O=C(c1cc(Cc2n[nH]c(=O)c3ccccc23)ccc1F)N1CCN(C(=O)C2CC2)CC1 [Olaparib] (first compound max 0.001 µM, 7x7, partner max 10 µM) | 0.0994 | 0.116 | 0.086 | 0.124 | 0.187 | 0.0858 | 0.515 | 0.221 | 0.595 | 0.0448 | 0.116 | 0.234 | 0.235 | 0.0632 | 0.226 | 0.0949 | 0.173 | 0.206 | 0.0785 | 0.267 |
| CCc1c2c(nc3ccc(O)cc13)-c1cc3c(c(=O)n1C2)COC(=O)[C@]3(O)CC [SN-38] + CN(C)CCCOc1ccc(-c2ccc3ncc4c(c3c2)n(C2CCOCC2)c(=O)n4C)cn1 [AZD0156] (first compound max 0.3 µM, 7x7, partner max 1 µM) | 0.855 | 0.983 | 0.993 | 0.907 | 0.827 | 0.928 | 0.821 | 0.992 | 1 | 0.443 | 0.73 | 0.755 | 0.494 | 0.826 | 0.928 | 0.206 | 0.5 | 0.805 | 0.391 | 0.975 |
| C[C@@H](c1ccc2nccn2c1)n1nnc2ncc(-c3cnn(C)c3)nc21 [Savolitinib] + CC1(C)CCC(CN2CCN(c3ccc(C(=O)NS(=O)(=O)c4ccc(NCC5CCOCC5)c([N+](=O)[O-])c4)c(Oc4cnc5[nH]ccc5c4)c3)CC2)=C(c2ccc(Cl)cc2)C1 [Venetoclax] (first compound max 1 µM, 7x7, partner max 1 µM) | 0.246 | 0.115 | 0.292 | 0.108 | 0.173 | 0.0725 | 0.525 | 0.251 | 0.188 | 0.145 | 0.117 | 0.142 | 0.212 | 0.3 | 0.0509 | 0.0542 | 0.172 | 0.118 | 0.115 | 0.12 |
| C[C@@H](c1ccc2nccn2c1)n1nnc2ncc(-c3cnn(C)c3)nc21 [Savolitinib] + Cc1c2c(nn1C)CSCc1cc(n(C)n1)CSc1cc(c3ccccc3c1)OCCCc1c(C(=O)O)n(C)c3c-2c(Cl)ccc13 [AZD5991] (first compound max 1 µM, 7x7, partner max 1 µM) | 0.442 | 1 | 0.211 | 0.269 | 0.244 | 0.186 | 0.246 | 0.245 | 1 | 0.19 | 0.153 | 0.22 | 0.194 | 0.279 | 0.0507 | 0.166 | 0.212 | 0.153 | 0.946 | 0.595 |
| Cn1cnc2c(F)c(Nc3ccc(Br)cc3Cl)c(C(=O)NOCCO)cc21 [Selumetinib] + C=CCn1c(=O)c2cnc(Nc3ccc(N4CCN(C)CC4)cc3)nc2n1-c1cccc(C(C)(C)O)n1 [AZD1775] (first compound max 10 µM, partner max 1 µM) | 0.527 | 0.945 | 0.689 | 0.523 | 0.305 | 0.654 | 0.504 | 0.979 | 0.953 | 0.244 | 0.546 | 0.779 | 0.39 | 0.878 | 0.539 | 0.419 | 0.408 | 0.682 | 0.509 | 0.797 |
| Cn1cnc2c(F)c(Nc3ccc(Br)cc3Cl)c(C(=O)NOCCO)cc21 [Selumetinib] + CC(C)n1c(=O)n(C)c2cnc3cc(F)c(-c4ccc(OCCCN5CCCCC5)nc4)cc3c21 [AZD1390] (first compound max 10 µM, 7x7, partner max 0.3 µM) | 0.181 | 0.584 | 0.288 | 0.334 | 0.201 | 0.216 | 0.109 | 0.318 | 0.408 | 0.158 | 0.402 | 0.761 | 0.241 | 0.76 | 0.0869 | 0.378 | 0.318 | 0.713 | 0.0626 | 0.116 |
| Cn1cnc2c(F)c(Nc3ccc(Br)cc3Cl)c(C(=O)NOCCO)cc21 [Selumetinib] + CCN(CCO)CCCOc1ccc2c(Nc3cc(CC(=O)Nc4cccc(F)c4)[nH]n3)ncnc2c1 [AZD2811] (first compound max 10 µM, 7x7, partner max 1 µM) | 0.247 | 0.682 | 0.414 | 0.538 | 0.453 | 0.389 | 0.733 | 0.369 | 0.597 | 0.225 | 0.464 | 0.807 | 0.277 | 0.774 | 0.338 | 0.407 | 0.383 | 0.728 | 0.211 | 0.286 |
